Active and inactive are the calls of the source. The calls are words filed in the database; no cut-off is given here.
Columns and labels:
[1] = target: Cathepsin B (Homo sapiens) (UniProt P07858); test: Inhibition of human recombinant cathepsin B
[2] = target: Procathepsin L (Homo sapiens) (UniProt P07711); test: Inhibition of human recombinant cathepsin L
[3] = target: Cathepsin B (Mus musculus) (UniProt P10605); test: Binding affinity to cathepsin B in mouse spleen crude extracts; type: tissue-based
Cathepsin B (Mus musculus), sequence (P10605 80-333 limits assumed): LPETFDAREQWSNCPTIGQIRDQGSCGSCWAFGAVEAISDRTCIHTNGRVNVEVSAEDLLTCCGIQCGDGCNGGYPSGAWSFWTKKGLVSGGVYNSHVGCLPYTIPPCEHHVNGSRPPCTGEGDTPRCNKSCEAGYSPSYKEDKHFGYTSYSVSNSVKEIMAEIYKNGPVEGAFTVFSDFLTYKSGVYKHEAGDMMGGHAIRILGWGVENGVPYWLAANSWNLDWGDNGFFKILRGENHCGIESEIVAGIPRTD

[4] = target: T1, Procathepsin L (Mus musculus) (UniProt P06797); test: Binding affinity to cathepsin L in wild type mouse NIH/3T3 cells; type: cell-based; details: NIH3T3
T1 sequence (whole entry): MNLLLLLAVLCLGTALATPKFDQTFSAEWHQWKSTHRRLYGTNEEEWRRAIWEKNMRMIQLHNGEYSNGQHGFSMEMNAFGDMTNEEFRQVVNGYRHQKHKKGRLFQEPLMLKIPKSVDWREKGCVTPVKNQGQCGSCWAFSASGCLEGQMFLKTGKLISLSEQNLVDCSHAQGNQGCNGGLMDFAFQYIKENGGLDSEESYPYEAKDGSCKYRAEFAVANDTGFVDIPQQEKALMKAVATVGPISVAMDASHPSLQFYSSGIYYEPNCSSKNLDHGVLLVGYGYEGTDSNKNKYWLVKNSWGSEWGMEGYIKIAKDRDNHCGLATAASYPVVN

[5] = target: Cathepsin B (Mus musculus) (UniProt P10605); test: Binding affinity to cathepsin B in wild type mouse NIH/3T3 cells; type: cell-based; details: NIH3T3
[6] = target: Cathepsin B (Mus musculus) (UniProt P10605); test: Binding affinity to cathepsin B in mouse spleen crude extracts at 500 nM; type: tissue-based
[7] = target: Cathepsin B (Homo sapiens) (UniProt P07858); test: Binding affinity to cathepsin B in human MDA-MB-231 cell lysates; type: cell-free

Procathepsin L (Homo sapiens), sequence (P07711 114-333 limits assumed): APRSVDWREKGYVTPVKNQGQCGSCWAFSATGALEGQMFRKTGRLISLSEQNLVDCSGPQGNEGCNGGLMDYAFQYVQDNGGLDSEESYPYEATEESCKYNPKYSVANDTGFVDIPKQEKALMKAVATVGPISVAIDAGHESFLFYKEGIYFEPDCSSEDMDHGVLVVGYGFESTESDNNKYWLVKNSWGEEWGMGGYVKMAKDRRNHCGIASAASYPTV

Row | Activity [1] | Activity [2] | Activity [3] | Activity [4] | Activity [5] | Activity [6] | Activity [7] | Structure (SMILES)
1 | 36700 M⁻¹ s⁻¹ | 1.63e+06 M⁻¹ s⁻¹ |  |  |  |  |  | CC(=O)/C=C/[C@H](C)NC(=O)[C@H](Cc1ccccc1)NC(=O)OCc1ccccc1
2 |  |  | Active | Active | Active | Active |  | COc1ccc(-c2ccc3n2[B-](F)(F)[N+]2=C(C)C(CCC(=O)NCCCCCC(=O)N[C@@H](Cc4ccccc4)C(=O)N[C@@H](C)/C=C/C(C)=O)=C(C)C2=C3)cc1
3 |  |  |  |  |  | Active | Active | CC(=O)/C=C/[C@H](C)NC(=O)[C@H](Cc1ccccc1)NC(=O)CCOCCOCCOCCOCCNC(=O)CCCC[C@H]1SC[C@H]2NC(=O)N[C@H]21

Reference: ChEMBL document CHEMBL1140990, “Evaluation of alpha,beta-unsaturated ketone-based probes for papain-family cysteine proteases” (Bioorg Med Chem, 2009)
